Measurements reported in PMC6940912, “Novel Drug-Like Somatostatin Receptor 4 Agonists are Potential Analgesics for Neuropathic Pain” (International Journal of Molecular Sciences, 2019).

What was measured:
Delta (DOP) = biological target: T1, Delta (DOP) (Homo sapiens, UniProt P41143); assay: Selectivity profile (Eurofins Cerep), cellular agonist/antagonist effect; assay type: cell-based; conditions: 1 µM
T1 construct: Eurofins Cerep (contract assay)
Experimental: (§1) The evaluation was performed by Eurofins Cerep (France). Compound binding was calculated as a % inhibition of the binding of a radioactively labeled ligand specific for each target. Enzyme inhibition effect was calculated as a % inhibition of control enzyme activity. Cellular agonist effect was calculated as a % of control response to a known reference agonist for each target, and cellular antagonist effect was calculated as a % inhibition of control reference agonist response for each target. In each experiment the respective reference compound was tested concurrently with Compound 1 [71, 72, 73, 74, 75, 76, 77, 78]. See in Supplementary Materials.

D1 = biological target: T2, D1 (Homo sapiens, UniProt P21728); assay: as above; assay type: cell-based; conditions: 1 µM
T2 construct: Eurofins Cerep (contract assay)
Experimental: as §1

Mu (MOP) = biological target: T3, Mu (MOP) (Homo sapiens, UniProt P35372); assay: as above; assay type: cell-based; conditions: 1 µM
T3 construct: Eurofins Cerep (contract assay)
Experimental: as §1

Male NMRI mice [1] = assay: Partial sciatic nerve ligation-induced chronic traumatic neuropathic mechanical hyperalgesia; assay type: in vivo, mouse
Experimental: After conditioning and two control mechanonociceptive measurements on 2 consecutive days, mice were anaesthetized by the combination of ketamine (100 mg/kg, i.p.) and xylazine (10 mg/kg, i.p.). Traumatic mononeuropathy was achieved by one-third to one-half part ligation of the right sciatic nerve. Significant decrease in the mechanical threshold develops 7 days after operation. The mechanonociceptive threshold of the plantar surface of the hindpaws was measured by DPA on the 7th postoperative day. The paw withdrawal threshold was obtained in grams (the maximal value was 10 g; ramp time of 4 s). The compounds (500 µg/kg) or the vehicle were administered orally on day 7, one hour before the repeated measurement. The experiment consisted of separate series on 3 consecutive days, and there were 2–3 vehicle-treated control animals in every series. Therefore, each group contained 8 mice.
(§2) In the sst4 receptor activation assay, all the compounds were dissolved in dimethyl sulfoxide (DMSO) (Szkarabeusz Ltd., Pécs, Hungary). The concentration of the stock solutions was 10 mM and was diluted with distilled water to reach the final concentrations. For the in vivo experiments, 1 mg of the compounds was rubbed dry in a braying mortar, suspended thoroughly in 1 mL 1.25% methylcellulose (MC) (Pharmacy of University of Pécs, Pécs, Hungary) solution and then dissolved in sterile bidistilled water to get a 1000 µg/mL stock solution freshly every experimental day. Most microsuspensions looked opalescent; they were shaken properly, sonicated, and further diluted with 1.25% MC to obtain the 25 µg/mL solution for oral administrations (0.2 mL/10 g body weight for the 500 µg/kg dose). The solutions were shaken and sonicated again directly before use. The vehicle was always 1.25% MC dissolved in sterile bidistilled water.
Male NMRI mice (8–12 weeks old) bred in the Laboratory Animal House of the Department of Pharmacology and Pharmacotherapy of the University of Pecs were kept in standard plastic cages at 24–25 °C, under a 12–12 h light–dark cycle and provided with standard rodent chow and water ad libitum. All experimental procedures complied with the recommendations of the 1998/XXVIII Act of the Hungarian Parliament on Animal Protection and Consideration Decree of Scientific Procedures of Animal Experiments (63/2010) and were approved by the Ethics Committee on Animal Research of Pecs University according to the Ethical Codex of Animal Experiments; license was given (license No. BA1/35/55-50/2017). We made all efforts to minimize the number and suffering of the animals used in this study.

K+ channel hERG = biological target: T4, K+ channel hERG (Homo sapiens, UniProt Q12809); assay: Selectivity profile (Eurofins Cerep), radioligand binding; conditions: 1 µM, % inhibition of binding of radiolabeled ligand
T4 construct: Eurofins Cerep (contract assay)
Experimental: as §1

Ca2+ channel = assay: as above; conditions: 1 µM, % inhibition of binding of radiolabeled ligand
Experimental: as §1

Male NMRI mice [2] = assay: RTX-induced acute neurogenic inflammatory thermal allodynia and mechanical hyperalgesia; assay type: in vivo, mouse; conditions: oral pretreatment 1 h before intraplantar RTX, printed dose 500 µg/kg
Experimental: The investigated compounds (500 µg/kg p.o.) or the vehicle were administered orally 1 h before the induction of the acute neurogenic inflammation by intraplantar RTX (Sigma, St. Louis, MO, USA) injection (20 µL, 0.1 µg/mL) into the right hindpaw. RTX evokes an acute neurogenic inflammatory reaction with the development of a rapid thermal allodynia, mainly due to peripheral sensitization mechanisms, and a later developing mechanical hyperalgesia due also to central sensitization. The nociceptive heat threshold was determined before (control) and 10, 20 and 30 min after RTX administration with an increasing-temperature hot plate (IITC Life Science, Woodland Hills, CA, USA). […] The mechanonociceptive threshold was measured with an electronic von Frey device (dynamic plantar aesthesiometer (DPA), Ugo Basile, Comerio, Italy) prior to RTX injection and 30, 60 and 90 min afterwards. The measurement at 30 min was performed immediately after the last heat threshold measurement. The experiment consisted of two separate series on consecutive days and the number of animals in the control group was six per day. Therefore, the control group contained 12 mice, and six and five mice were used in the C1- and C2-treated groups, respectively.
as §2
Male NMRI mice (8–12 weeks old) bred in the Laboratory Animal House of the Department of Pharmacology and Pharmacotherapy of the University of Pecs were kept in standard plastic cages at 24–25 °C, under a 12–12 h light–dark cycle and provided with standard rodent chow and water ad libitum. […]

[3] = % inhibition of control reference agonist response
[4] = % of control response to reference agonist
[5] = day 7 after sciatic nerve ligation, 500 µg/kg oral, 1 h later, n = 8
[6] = day 7 after sciatic nerve ligation, pretreatment self-control, n = 8

T2 sequence (P21728 whole entry): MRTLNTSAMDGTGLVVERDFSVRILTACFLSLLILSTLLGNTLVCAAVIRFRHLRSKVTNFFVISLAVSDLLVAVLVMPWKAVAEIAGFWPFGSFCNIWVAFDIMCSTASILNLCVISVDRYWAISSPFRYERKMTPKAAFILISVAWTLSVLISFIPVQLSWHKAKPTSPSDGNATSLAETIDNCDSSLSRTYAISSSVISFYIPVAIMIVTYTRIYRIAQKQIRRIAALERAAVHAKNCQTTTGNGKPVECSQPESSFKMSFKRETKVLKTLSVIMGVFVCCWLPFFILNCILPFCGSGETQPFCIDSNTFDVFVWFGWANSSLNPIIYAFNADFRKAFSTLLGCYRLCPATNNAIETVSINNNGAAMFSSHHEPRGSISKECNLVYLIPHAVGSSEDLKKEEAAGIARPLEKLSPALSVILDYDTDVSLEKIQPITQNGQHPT
T1 sequence (P41143 whole entry): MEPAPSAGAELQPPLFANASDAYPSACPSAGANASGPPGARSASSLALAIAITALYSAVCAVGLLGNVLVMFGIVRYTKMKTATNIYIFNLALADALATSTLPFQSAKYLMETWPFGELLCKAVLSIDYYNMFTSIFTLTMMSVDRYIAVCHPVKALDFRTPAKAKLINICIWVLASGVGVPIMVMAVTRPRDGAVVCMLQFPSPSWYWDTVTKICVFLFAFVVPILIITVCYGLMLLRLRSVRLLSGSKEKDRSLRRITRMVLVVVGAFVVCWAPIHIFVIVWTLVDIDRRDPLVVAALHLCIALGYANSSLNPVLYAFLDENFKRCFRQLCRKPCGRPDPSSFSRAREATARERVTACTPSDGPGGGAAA
T3 sequence (P35372 whole entry): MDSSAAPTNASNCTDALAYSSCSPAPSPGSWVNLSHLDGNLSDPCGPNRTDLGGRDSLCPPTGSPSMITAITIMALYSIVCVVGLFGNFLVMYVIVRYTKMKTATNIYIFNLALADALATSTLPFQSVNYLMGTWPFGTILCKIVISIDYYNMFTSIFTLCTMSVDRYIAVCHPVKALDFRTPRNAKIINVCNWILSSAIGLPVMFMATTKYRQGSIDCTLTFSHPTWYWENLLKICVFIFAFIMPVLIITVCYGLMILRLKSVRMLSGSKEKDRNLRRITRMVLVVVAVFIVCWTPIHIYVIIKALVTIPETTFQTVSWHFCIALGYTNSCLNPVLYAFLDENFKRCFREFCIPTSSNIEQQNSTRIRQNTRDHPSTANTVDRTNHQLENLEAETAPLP
T4 sequence (Q12809 whole entry): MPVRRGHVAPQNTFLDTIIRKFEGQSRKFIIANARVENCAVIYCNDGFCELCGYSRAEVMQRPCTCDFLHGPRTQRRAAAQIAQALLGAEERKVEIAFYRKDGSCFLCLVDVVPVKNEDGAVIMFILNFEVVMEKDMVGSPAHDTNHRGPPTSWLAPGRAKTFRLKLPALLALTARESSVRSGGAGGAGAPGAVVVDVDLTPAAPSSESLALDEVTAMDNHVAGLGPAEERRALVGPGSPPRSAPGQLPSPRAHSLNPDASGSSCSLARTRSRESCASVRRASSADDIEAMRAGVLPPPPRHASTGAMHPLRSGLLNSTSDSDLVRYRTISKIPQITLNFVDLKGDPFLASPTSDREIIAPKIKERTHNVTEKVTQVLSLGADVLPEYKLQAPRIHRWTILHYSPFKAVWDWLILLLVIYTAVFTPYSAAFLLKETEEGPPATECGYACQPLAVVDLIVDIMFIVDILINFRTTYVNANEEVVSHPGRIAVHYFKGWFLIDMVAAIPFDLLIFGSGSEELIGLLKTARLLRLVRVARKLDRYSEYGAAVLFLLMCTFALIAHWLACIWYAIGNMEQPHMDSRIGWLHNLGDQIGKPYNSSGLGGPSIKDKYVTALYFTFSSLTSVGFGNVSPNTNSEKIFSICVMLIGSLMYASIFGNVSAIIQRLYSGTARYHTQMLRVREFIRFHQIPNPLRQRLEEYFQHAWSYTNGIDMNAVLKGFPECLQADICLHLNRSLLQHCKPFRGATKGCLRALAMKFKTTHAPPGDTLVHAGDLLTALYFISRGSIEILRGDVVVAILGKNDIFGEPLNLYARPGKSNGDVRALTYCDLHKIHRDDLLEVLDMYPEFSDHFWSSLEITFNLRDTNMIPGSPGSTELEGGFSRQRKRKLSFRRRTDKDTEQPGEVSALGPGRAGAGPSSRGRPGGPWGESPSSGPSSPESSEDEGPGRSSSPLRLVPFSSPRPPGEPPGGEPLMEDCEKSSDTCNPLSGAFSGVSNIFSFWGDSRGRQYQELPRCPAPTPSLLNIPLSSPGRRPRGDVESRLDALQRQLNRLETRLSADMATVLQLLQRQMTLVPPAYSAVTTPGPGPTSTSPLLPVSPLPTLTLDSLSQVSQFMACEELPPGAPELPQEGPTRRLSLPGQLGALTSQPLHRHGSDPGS

c1ccc(CCNc2ncnc3c2ccn3Cc2ccccc2)cc1 [Compound 1, (7-Benzyl-7H-pyrrolo[2,3-d]pyrimidin-4-yl)-phenethyl-amine]
Antagonist Effect (%) (Delta (DOP); [3]): −1.4% | Agonist Effect (%) (Delta (DOP); [4]): −0.3% | Antagonist Effect (%) (D1; [3]): −10% | Agonist Effect (%) (D1; [4]): 3.3% | Antagonist Effect (%) (Mu (MOP); [3]): 20.2% | Agonist Effect (%) (Mu (MOP); [4]): 5.5% | Mechanonociceptive threshold of operated limb, 1 h after treatment (Male NMRI mice [1]; [5]): 8.53 ± 0.37 g | Neuropathic mechanical hyperalgesia, 1 h after treatment (Male NMRI mice [1]; [5]): 9.98% ± 3.92 | Mechanonociceptive threshold of operated limb, before treatment (Male NMRI mice [1]; [6]): 6.51 ± 0.18 g | Neuropathic mechanical hyperalgesia, before treatment (Male NMRI mice [1]; [6]): 31.22% ± 2.11 | Anti-hyperalgesic effect on neuropathic mechanical hyperalgesia (Male NMRI mice [1]; traumatic nerve injury, single oral 500 µg/kg): approximately 70% | Inhibition of radioligand binding (%) (K+ channel hERG): 23.6% | Inhibition of radioligand binding (Ca2+ channel): 19.4% | Effect on acute neurogenic inflammatory heat hyperalgesia (Male NMRI mice [2]; at 10 and 30 min): significantly decreased | Effect on RTX-induced mechanical hyperalgesia (Male NMRI mice [2]; at 30 min): significantly decreased
